Assay results from ChEMBL document CHEMBL4339212, “Novel 7-formyl-naphthyridyl-ureas derivatives as potential selective FGFR4 inhibitors: Design, synthesis, and biological activity studies” (Bioorg Med Chem, 2019).

How the values were obtained:
[1] = target: Vascular endothelial growth factor receptor 3 (Homo sapiens, UniProt P35916); experiment: Inhibition of FLT4 (unknown origin)
[2] = target: Tyrosine-protein kinase JAK2 (Homo sapiens, UniProt O60674); experiment: Inhibition of JAK2 (unknown origin)
[3] = target: Muscle, skeletal receptor tyrosine-protein kinase (Homo sapiens, UniProt O15146); experiment: Inhibition of MUSK (unknown origin)
[4] = Toxicity in female BALB/c mouse assessed as effect on body weight at 50 to 450 mg/kg/day, ig dosed once daily for 4 weeks followed by rehabilitation for another 28 days; format: organism-based; conditions: in vivo, po, 672 h
[5] = target: Receptor-type tyrosine-protein kinase FLT3 (Homo sapiens, UniProt P36888); experiment: Inhibition of FLT3 (unknown origin)
Insulin receptor = Insulin receptor (Homo sapiens, UniProt P06213); experiment: Inhibition of INSR (unknown origin)
[6] = target: Fibroblast growth factor receptor 3 (Homo sapiens, UniProt P22607); experiment: Inhibition of FGFR3 (unknown origin)
Sequence of Fibroblast growth factor receptor 3 (P22607 whole entry): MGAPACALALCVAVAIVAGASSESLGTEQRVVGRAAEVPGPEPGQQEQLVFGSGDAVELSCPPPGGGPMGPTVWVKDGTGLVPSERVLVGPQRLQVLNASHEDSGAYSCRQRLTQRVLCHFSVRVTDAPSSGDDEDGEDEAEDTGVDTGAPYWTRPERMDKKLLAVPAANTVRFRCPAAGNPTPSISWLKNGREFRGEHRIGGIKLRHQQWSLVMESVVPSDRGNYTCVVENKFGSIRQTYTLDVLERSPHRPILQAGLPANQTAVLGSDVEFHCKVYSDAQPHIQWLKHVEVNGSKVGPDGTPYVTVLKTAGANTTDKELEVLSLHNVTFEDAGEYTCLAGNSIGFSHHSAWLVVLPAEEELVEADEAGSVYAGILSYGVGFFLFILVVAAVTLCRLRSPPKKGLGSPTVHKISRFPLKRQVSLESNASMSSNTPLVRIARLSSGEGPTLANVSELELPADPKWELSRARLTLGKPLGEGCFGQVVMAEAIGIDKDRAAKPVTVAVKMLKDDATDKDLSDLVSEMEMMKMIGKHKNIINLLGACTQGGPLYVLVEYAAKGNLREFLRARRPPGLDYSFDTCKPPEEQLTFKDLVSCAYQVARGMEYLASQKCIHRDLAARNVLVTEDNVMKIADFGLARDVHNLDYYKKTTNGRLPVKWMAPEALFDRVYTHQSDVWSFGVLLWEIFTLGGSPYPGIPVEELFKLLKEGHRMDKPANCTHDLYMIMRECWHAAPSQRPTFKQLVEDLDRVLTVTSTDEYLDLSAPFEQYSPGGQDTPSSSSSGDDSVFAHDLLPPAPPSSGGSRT

[7] = target: Macrophage-stimulating protein receptor (Homo sapiens, UniProt Q04912); experiment: Inhibition of RON (unknown origin)
[8] = Toxicity in female BALB/c mouse assessed as effect on clinical pathology parameters at 200 to 2000 mg/kg, ig administered as single dose measured after 14 days; format: organism-based; conditions: in vivo, po, 336 h
Huh-7 [9] = experiment: Antitumor activity against human HuH7 cells xenografted in nude BALB/c mouse assessed as inhibition of tumor growth at 100 mg/kg bid for 14 days and measured twice per week relative to untreated control; format: functional; conditions: Huh-7, 336 h, read-out: TGI
[10] = target: Vascular endothelial growth factor receptor 2 (Homo sapiens, UniProt P35968); experiment: Inhibition of KDR (unknown origin)
Huh-7 [11] = experiment: cells; conditions: Homo sapiens, Huh-7, 72 h
[12] = target: Tyrosine-protein kinase JAK3 (Homo sapiens, UniProt P52333); experiment: Inhibition of JAK3 (unknown origin)
[13] = Toxicity in male BALB/c mouse assessed as effect on clinical pathology parameters at 200 to 2000 mg/kg, ig administered as single dose measured after 14 days; format: organism-based; conditions: in vivo, po, 336 h
Hep 3B2 [14] = experiment: Antitumor activity against human Hep3B cells xenografted in nude BALB/c mouse assessed as inhibition of tumor growth at 10 mg/kg bid for 14 days and measured twice per week relative to untreated control; format: functional; conditions: 336 h, read-out: TGI
[15] = target: Non-receptor tyrosine-protein kinase TYK2 (Homo sapiens, UniProt P29597); experiment: Inhibition of TYK2 (unknown origin)
Huh-7 [16] = experiment: Antitumor activity against human HuH7 cells xenografted in nude BALB/c mouse assessed as inhibition of tumor growth at 10 mg/kg bid for 14 days and measured twice per week relative to untreated control; format: functional; conditions: Huh-7, 336 h, read-out: TGI
[17] = target: T1, Fibroblast growth factor receptor 1 (Homo sapiens, UniProt P11362); experiment: Inhibition of FGFR1 (unknown origin)
T1 sequence (P11362 whole entry): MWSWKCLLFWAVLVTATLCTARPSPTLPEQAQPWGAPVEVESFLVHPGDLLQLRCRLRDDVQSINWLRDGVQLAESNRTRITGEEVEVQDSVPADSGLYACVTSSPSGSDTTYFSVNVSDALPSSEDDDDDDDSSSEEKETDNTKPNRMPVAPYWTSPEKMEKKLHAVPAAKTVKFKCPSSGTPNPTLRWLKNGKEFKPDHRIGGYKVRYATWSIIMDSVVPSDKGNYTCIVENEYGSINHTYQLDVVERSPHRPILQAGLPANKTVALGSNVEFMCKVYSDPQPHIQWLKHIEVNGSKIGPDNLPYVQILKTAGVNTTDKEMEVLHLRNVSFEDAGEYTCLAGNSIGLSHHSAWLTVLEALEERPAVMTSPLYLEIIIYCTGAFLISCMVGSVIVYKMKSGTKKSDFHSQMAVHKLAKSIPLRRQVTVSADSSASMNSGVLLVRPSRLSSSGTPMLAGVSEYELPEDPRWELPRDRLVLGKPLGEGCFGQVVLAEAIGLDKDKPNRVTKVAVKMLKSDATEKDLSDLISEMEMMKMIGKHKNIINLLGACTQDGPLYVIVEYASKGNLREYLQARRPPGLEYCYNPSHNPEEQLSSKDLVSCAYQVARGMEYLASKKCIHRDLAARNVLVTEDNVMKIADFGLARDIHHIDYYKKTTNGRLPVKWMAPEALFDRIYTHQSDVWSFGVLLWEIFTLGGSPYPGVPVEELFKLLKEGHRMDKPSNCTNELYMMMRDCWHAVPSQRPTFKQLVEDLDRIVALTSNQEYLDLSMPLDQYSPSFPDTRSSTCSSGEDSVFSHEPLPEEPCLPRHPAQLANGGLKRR

[18] = target: Proto-oncogene tyrosine-protein kinase receptor Ret (Homo sapiens, UniProt P07949); experiment: Inhibition of RET (unknown origin)
[19] = target: Tyrosine-protein kinase SYK (Homo sapiens, UniProt P43405); experiment: Inhibition of SYK (unknown origin)
[20] = target: MAP kinase-activated protein kinase 2 (Homo sapiens, UniProt P49137); experiment: Inhibition of MAPKAPK2 (unknown origin)
Hep 3B2 [21] = experiment: Antitumor activity against human Hep3B cells xenografted in nude BALB/c mouse assessed as inhibition of tumor growth at 3 mg/kg bid for 14 days and measured twice per week relative to untreated control; format: functional; conditions: 336 h, read-out: TGI
Hep 3B2 [22] = experiment: Antitumor activity against human Hep3B cells xenografted in nude BALB/c mouse assessed as inhibition of tumor growth at 30 mg/kg bid for 14 days and measured twice per week relative to untreated control; format: functional; conditions: 336 h, read-out: TGI
[23] = target: Receptor tyrosine-protein kinase erbB-4 (Homo sapiens, UniProt Q15303); experiment: Inhibition of HER4 (unknown origin)
[24] = Toxicity in female BALB/c mouse assessed as induction of animal death at 450 mg/kg/day, ig dosed once daily for 4 weeks followed by rehabilitation for another 28 days; format: organism-based; conditions: in vivo, po, 672 h
[25] = target: T1, Fibroblast growth factor receptor 1; experiment: Inhibition of FGFR1 (unknown origin) incubated for 60 mins by caliper microfluidic mobility shift technology based assay
[26] = target: Tyrosine-protein kinase receptor UFO (Homo sapiens, UniProt P30530); experiment: Inhibition of AXL (unknown origin)
[27] = target: Insulin-like growth factor 1 receptor (Homo sapiens, UniProt P08069); experiment: Inhibition of IGF1R (unknown origin)
Sequence of Insulin-like growth factor 1 receptor (P08069 31-736 limits assumed): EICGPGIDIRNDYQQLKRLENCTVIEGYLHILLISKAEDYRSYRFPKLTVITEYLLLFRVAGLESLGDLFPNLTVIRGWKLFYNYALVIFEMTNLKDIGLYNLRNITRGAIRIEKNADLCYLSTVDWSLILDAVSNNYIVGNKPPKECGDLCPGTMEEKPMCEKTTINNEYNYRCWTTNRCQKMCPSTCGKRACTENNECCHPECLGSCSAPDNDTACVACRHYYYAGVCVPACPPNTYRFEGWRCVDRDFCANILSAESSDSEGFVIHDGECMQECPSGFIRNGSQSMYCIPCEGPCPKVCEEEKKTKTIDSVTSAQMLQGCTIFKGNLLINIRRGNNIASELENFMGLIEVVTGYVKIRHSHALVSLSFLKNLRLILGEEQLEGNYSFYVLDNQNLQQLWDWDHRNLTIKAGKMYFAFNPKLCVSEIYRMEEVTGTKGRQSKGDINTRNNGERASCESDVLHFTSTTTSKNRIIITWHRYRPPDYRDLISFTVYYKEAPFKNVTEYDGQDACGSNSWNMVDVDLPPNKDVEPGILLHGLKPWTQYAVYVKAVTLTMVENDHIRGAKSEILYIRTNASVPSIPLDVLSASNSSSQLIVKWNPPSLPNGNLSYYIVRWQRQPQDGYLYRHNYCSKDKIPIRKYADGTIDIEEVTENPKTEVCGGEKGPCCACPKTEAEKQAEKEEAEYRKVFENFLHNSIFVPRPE
Sequence of Insulin-like growth factor 1 receptor (P08069 741-1367 limits assumed): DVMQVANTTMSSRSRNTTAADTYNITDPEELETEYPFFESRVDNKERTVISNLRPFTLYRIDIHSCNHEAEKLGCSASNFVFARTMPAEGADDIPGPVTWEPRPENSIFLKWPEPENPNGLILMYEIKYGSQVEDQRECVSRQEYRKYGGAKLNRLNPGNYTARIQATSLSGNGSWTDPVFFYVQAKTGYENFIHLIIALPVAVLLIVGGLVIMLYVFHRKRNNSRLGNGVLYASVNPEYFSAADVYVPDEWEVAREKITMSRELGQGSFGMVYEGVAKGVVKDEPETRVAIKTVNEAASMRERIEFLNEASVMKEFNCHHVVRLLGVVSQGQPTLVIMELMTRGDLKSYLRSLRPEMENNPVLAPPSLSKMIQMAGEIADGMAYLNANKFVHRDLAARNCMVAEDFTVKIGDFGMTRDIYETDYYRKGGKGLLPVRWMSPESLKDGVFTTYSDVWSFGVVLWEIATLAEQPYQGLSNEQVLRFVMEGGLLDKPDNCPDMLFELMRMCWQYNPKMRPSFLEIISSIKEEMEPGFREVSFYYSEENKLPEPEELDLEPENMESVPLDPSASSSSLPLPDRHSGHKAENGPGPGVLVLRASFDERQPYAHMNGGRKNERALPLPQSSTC

[28] = target: Epidermal growth factor receptor (Homo sapiens, UniProt P00533); experiment: Inhibition of EGFR (unknown origin)
Focal adhesion kinase 1 = Focal adhesion kinase 1 (Homo sapiens, UniProt Q05397); experiment: Inhibition of FAK (unknown origin)
Sequence of Focal adhesion kinase 1 (Q05397 whole entry): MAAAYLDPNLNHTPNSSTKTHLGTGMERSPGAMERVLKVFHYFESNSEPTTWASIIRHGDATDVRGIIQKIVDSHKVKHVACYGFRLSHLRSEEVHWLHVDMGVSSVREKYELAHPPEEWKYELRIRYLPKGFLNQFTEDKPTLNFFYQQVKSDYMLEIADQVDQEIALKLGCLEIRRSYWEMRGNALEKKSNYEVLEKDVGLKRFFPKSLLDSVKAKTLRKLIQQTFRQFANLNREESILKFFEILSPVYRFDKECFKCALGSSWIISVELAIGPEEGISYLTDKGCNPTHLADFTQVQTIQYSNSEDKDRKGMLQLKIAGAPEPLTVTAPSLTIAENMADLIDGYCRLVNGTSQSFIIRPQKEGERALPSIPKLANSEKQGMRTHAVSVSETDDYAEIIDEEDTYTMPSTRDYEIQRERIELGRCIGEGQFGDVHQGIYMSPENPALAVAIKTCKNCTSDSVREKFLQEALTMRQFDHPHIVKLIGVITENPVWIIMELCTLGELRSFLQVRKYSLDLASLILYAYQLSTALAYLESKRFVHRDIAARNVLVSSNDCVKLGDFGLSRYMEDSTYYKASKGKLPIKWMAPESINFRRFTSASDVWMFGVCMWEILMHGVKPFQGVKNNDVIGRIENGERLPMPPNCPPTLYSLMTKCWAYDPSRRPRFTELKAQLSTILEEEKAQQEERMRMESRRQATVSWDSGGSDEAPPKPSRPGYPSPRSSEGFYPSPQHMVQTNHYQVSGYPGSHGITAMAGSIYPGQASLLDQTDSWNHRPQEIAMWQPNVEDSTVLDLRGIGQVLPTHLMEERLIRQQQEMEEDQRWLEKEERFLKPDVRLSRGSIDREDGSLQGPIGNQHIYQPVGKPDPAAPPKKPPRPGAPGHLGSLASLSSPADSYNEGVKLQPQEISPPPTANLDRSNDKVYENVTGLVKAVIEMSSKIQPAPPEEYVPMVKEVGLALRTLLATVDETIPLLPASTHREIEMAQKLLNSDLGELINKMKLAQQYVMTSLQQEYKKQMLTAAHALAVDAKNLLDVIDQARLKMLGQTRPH

[29] = target: MAP kinase-activated protein kinase 3 (Homo sapiens, UniProt Q16644); experiment: Inhibition of MAPKAPK3 (unknown origin)
[30] = target: Fibroblast growth factor receptor 2 (Homo sapiens, UniProt P21802); experiment: Inhibition of FGFR2 (unknown origin)
[31] = target: Platelet-derived growth factor receptor alpha (Homo sapiens, UniProt P16234); experiment: Inhibition of PDGFRalpha (unknown origin)
[32] = AUC in Sprague-Dawley rat at 5 mg/kg, ig measured after 5 mins to 24 hrs by LC-MS analysis; format: ADME, organism-based; parameters: dose 5 mg/kg, time 0.083-24 hr, route […]; conditions: in vivo, po
[33] = target: Receptor tyrosine-protein kinase erbB-2 (Homo sapiens, UniProt P04626); experiment: Inhibition of HER2 (unknown origin)
Hep 3B2 [34] = experiment: cells; conditions: Homo sapiens, Hep3B, 72 h
[35] = target: Proto-oncogene tyrosine-protein kinase ROS (Homo sapiens, UniProt P08922); experiment: Inhibition of ROS (unknown origin)
[36] = target: Leukocyte tyrosine kinase receptor (Homo sapiens, UniProt P29376); experiment: Inhibition of LTK (unknown origin)
Sequence of Leukocyte tyrosine kinase receptor (P29376 whole entry): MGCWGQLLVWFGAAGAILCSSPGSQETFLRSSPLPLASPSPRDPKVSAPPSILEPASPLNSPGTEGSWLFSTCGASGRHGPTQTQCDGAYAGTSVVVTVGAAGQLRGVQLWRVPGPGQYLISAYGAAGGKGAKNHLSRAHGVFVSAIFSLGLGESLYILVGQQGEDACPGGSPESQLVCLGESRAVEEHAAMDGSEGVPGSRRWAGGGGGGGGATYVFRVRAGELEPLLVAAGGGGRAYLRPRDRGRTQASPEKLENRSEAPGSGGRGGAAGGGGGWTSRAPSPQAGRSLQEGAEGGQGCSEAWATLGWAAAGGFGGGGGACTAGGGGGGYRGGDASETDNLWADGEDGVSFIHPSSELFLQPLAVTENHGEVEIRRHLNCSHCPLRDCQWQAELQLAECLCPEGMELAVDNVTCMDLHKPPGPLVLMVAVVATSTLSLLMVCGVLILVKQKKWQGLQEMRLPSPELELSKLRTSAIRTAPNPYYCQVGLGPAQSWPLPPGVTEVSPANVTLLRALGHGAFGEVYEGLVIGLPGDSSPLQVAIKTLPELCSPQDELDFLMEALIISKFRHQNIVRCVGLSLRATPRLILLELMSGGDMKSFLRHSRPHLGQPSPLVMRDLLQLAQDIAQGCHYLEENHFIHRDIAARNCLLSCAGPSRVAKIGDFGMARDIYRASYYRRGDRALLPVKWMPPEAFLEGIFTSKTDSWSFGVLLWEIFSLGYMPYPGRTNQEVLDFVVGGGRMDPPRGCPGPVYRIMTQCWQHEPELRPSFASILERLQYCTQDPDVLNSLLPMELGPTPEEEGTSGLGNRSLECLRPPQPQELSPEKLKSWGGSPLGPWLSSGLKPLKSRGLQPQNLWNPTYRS

[37] = target: Platelet-derived growth factor receptor beta (Homo sapiens, UniProt P09619); experiment: Inhibition of PDGFRbeta (unknown origin)
[38] = Toxicity in male BALB/c mouse at 50 to 450 mg/kg/day, ig dosed once daily for 4 weeks followed by rehabilitation for another 28 days; format: organism-based; conditions: in vivo, po
Angiopoietin-1 receptor = Angiopoietin-1 receptor (Homo sapiens, UniProt Q02763); experiment: Inhibition of TIE2 (unknown origin)
[39] = target: ALK tyrosine kinase receptor (Homo sapiens, UniProt Q9UM73); experiment: Inhibition of ALK (unknown origin)
[40] = Toxicity in female BALB/c mouse at 50 to 450 mg/kg/day, ig dosed once daily for 4 weeks followed by rehabilitation for another 28 days; format: organism-based; conditions: in vivo, po
SK-HEP1 = experiment: Antiproliferative activity against human SKHEP1 cells without FGFR4 gene amplification assessed as inhibition of cell proliferation incubated for 72 hrs by CellTiter-Glo method; format: functional, cell-based; conditions: SK-HEP1, 72 h
[41] = target: Fibroblast growth factor receptor 4 (Homo sapiens, UniProt P22455); experiment: Inhibition of FGFR4 (unknown origin) incubated for 60 mins by caliper microfluidic mobility shift technology based assay

Compound `COC[C@@H](C)Nc1cc(NC(=O)N2CCCc3cc(CN4CCCCOC4=O)c(C=O)nc32)ncc1C#N` has an IC50 [1] of over 10 µM, an IC50 [2] of over 10 µM and an IC50 [3] of over 10 µM. For the same compound, the Activity [4] was “Non-Toxic”, the IC50 [5] was over 10 µM and the IC50 (Insulin receptor) was over 10 µM. For the same compound, the IC50 [6] was over 10 µM, the IC50 [7] was over 10 µM and the Activity [8] was “Non-Toxic”. The inhibition in vivo at 100 mg/kg (Huh-7 [9]) was 70.8%, the IC50 [10] was over 10 µM and the IC50 (Huh-7 [11]) was 0.0025 µM. For the same compound, the IC50 [12] was over 10 µM, the Activity [13] was “Non-Toxic” and the inhibition in vivo at 10 mg/kg (Hep 3B2 [14]) was 126%. The IC50 [15] was over 10 µM, the inhibition in vivo at 10 mg/kg (Huh-7 [16]) was 28.1% and the IC50 [17] was over 10 µM. For the same compound, the IC50 [18] was over 10 µM, the IC50 [19] was over 10 µM and the IC50 [20] was over 10 µM. It also gave an inhibition in vivo at 3 mg/kg (Hep 3B2 [21]) of 69.8%, an inhibition in vivo at 30 mg/kg (Hep 3B2 [22]) of 165% and an IC50 [23] of over 10 µM. For the same compound, the Activity [24] was “Toxic”, the IC50 [25] was over 10 µM and the IC50 [26] was over 10 µM. For the same compound, the IC50 [27] was over 10 µM, the IC50 [28] was over 10 µM and the IC50 (Focal adhesion kinase 1) was over 10 µM. It also gave an IC50 [29] of over 10 µM, an IC50 [30] of over 10 µM and an IC50 [31] of over 10 µM. The AUC [32] was 9460 ng·h/mL, the IC50 [33] was over 10 µM and the IC50 (Hep 3B2 [34]) was 0.0011 µM. For the same compound, the IC50 [35] was over 10 µM, the IC50 [36] was over 10 µM and the IC50 [37] was over 10 µM. The NOAEL at 672 h [38] was 450 mg/kg, the IC50 (Angiopoietin-1 receptor) was over 10 µM and the IC50 [39] was over 10 µM. For the same compound, the NOAEL at 672 h [40] was 150 mg/kg, the IC50 (SK-HEP1) was over 10 µM and the IC50 [41] was 0.0015 µM.
